Test results published in paper PMC3600304, “Inhibitors of Fatty Acid Synthesis Induce PPARα-Regulated Fatty Acid β-Oxidative Genes: Synergistic Roles of L-FABP and Glucose” (PPAR Research, 2013).

Tests used:
[1] = system: mouse primary hepatocytes; assay: Hepatocyte unesterified (free) LCFA determination; format: cell-based; conditions: normal physiological glucose (6 mM), inhibitor 10 μg/mL
Procedure: (§1) Mouse hepatocytes were isolated from livers of male wild-type and L-FABP null mice as described. To study the effect of TOFA and C75 at different glucose levels, mouse hepatocytes were cultured overnight with DMEM/F-12 supplemented with 5% FBS. Cells were incubated with glucose-free DMEM supplemented with fatty acid-free BSA (40 μM), 100 nM insulin, 10 nM dexamethasone, and without (no inhibitor) or with the de novo fatty acid synthesis inhibitors C75 or TOFA (10 μg/mL) for 30 min (1 mL/well). Cells were incubated further for 5 hr with 6 or 20 mM glucose without or with the inhibitors.
Cultured mouse hepatocytes were plated 4 × 10^5 cells per well in 12-well tissue culture plates. After incubation with TOFA or C75 at different glucose levels as described previously, hepatocytes were washed with cold PBS 4x, scraped with cold PBS (with protease inhibitor), and homogenized with a probe sonicator (Sonic Dismembrator 550, Fisher Scientific, Waltham, MA, USA). A 20 μL sample was saved for protein analysis using the Bio-Rad protein assay reagent, (Bio-Rad, Hercules, CA, USA). […]
The LCFA content of each sample was measured with the Free Fatty Acid Quantification Kit from BioVision, Inc. (Mountain View, California, USA) according to manufacturer's instructions, using a standard of palmitic acid included in the kit. […]

[2] = system: mouse primary hepatocytes; assay: Hepatocyte cytosolic glucose level; format: cell-based; conditions: for Cytosolic glucose / Fold increase of cytosolic glucose versus no inhibitor: inhibitor 10 μg/mL; for Fold increase of cytosolic glucose by inhibitor: high extracellular glucose (20 mM); for Fold increase of cytosolic glucose with increasing glucose from 6 to 20 mM: in the presence of inhibitor 10 μg/mL
Procedure: as §1
Hepatocytes were plated 2 × 10^5 per well in 12-well tissue culture plates (Becton Dickinson and Company, Franklin Lakes, NJ, USA). After incubation with culture medium containing TOFA or C75 with increasing glucose level as described previously, hepatocytes were washed quickly with a cold solution of MgCl2 (100 mM) with 0.1 mM phloretin [46]. Cells were scraped from the dishes with PBS plus protease inhibitor, and cells were broken open with a probe sonicator (Sonic Dismembrator 550, Fisher Scientific, Waltham, MA, USA). Samples were sedimented at 10,000 g, 4°C for 20 min. The supernatant was used for glucose analysis with the Amplite Glucose Quantitation Kit (AAT Bioquest, Inc. Sunnyvale, CA, USA) as instructed by the manufacturer. The number of cultured primary hepatocytes in each sample was calculated based on amount of protein (Bradford Assay, Sigma, St. Louis, MO, USA) compared with reference samples with a known number of hepatocytes. Cytosolic glucose concentration was calculated using 7.4 × 10^−12 liter/cell as volume of the hepatocytes.

[3] = system: PPARα transcription of CPT1A, CPT2, ACOX1; assay: rtPCR of CPT1A, CPT2, ACOX1 mRNA in L-FABP (−/−) null mouse primary hepatocytes; format: cell-based; conditions: for PPARα transcription of CPT1A, CPT2, ACOX1 (mRNA): 6 mM glucose; for PPARα transcription of CPT1A, CPT2, ACOX1 (mRNA) / Ability to activate PPARα transcription of CPT1A, CPT2, ACOX1 (mRNA): inhibitor 10 μg/mL, 5 hr
From the text: Wild-type mice on a C57BL/6N background purchased from Charles River Laboratories (Wilmington, MA, USA) were obtained from the National Cancer Institute (Frederick Cancer Research and Development Center, Frederick, MD, USA). L-FABP (−/−) null mice were obtained by targeted disruption of the L-FABP gene and backcrossed to C57Bl/6N background to the N10 (99.9% homogeneity) generation. For hepatocyte isolation, livers were collected from male mice aged 3–6 mo. Mouse protocols were approved by the Institutional Animal Care and Use Committee (IACUC) at Texas A&M University. Mice were kept under a constant 12/12 light-dark cycle and had access to food and water ad libitum.
as §1
Transcription of key enzymes in mitochondrial (CPT1A and CPT2) and peroxisomal (ACOX1) β-oxidation of long chain fatty acid (LCFA) was determined by rtPCR similarly as described. Briefly, the RNeasy mini kit from Qiagen Sciences (MD, USA) was used as per the manufacturer's instructions to isolate total RNA, which was then quantified spectrophotometrically. Quantitative real-time PCR was performed with an ABI PRISM 7000 Sequence Detection System (SDS) from Applied Biosystems (Foster City, CA, USA) to determine relative mRNA expression for CPT1A, CPT2, and ACOX1. The thermal protocol was as follows: 48°C for 30 min, 95°C for 10 min before the first cycle, 95°C for 15 sec, and 60°C for 60 sec, repeated 40 times. TaqMan One-Step Master Mix and Gene Expression Assays for mouse CPT1A (Mm 00550438_m1), CPT2 (Mm 00487202_m1), and ACOX1 (Mm 00443579_m1) were purchased from Applied Biosystems (Life Technologies, Carlsbad, CA, USA). Triplicates of each sample were analyzed with ABI PRISM 7000 SDS software (Applied Biosystems) to determine ΔCt relative to a positive control (18S housekeeping gene). The fold change in the abundance of CPT1A, CPT2, and ACOX1 mRNAs was determined in primary mouse hepatocytes treated with albumin (40 μM) in the absence and presence of lipid synthesis inhibitors (C75, TOFA, 10 μg/mL) in glucose-free DMEM medium supplemented with 100 nM insulin, 10 nM dexamethasone, and either 6 or 20 mM glucose. The comparative 2^−ΔΔCt calculation method was used as described in User Bulletin 2, ABI Prism 7000 SDS (Applied Biosystems), and earlier. Finally, protein levels of liver fatty acid binding protein (L-FABP), sterol carrier protein-2 (SCP-2), acyl CoA binding protein (ACBP), peroxisome proliferator activated receptor (PPARα), liver X receptor-α (LXRα), carbohydrate response element binding protein (ChREBP), and sterol response element binding protein (SREBP) were determined by western blotting as described.

[4] = system: PPARα; conditions: COS7 cells; cited from earlier work
[5] = biological target: T1, L-FABP (Rattus norvegicus, UniProt P02692); assay: L-FABP tyrosine fluorescence quenching; format: binding; conditions: L-FABP 100 nM
T1 construct: made in house
T1 sequence (P02692 1-127): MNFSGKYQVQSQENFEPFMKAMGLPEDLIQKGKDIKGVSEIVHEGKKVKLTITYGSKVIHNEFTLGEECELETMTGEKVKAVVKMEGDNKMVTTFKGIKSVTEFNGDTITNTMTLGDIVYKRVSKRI
Procedure: Tyrosine fluorescence of L-FABP (100 nM) in 10 mM phosphate buffer was monitored by scanning from 290 to 400 nm, with excitation wavelength 280 nm, before and after small increments of added binding ligand. The binding curve was constructed by plotting tyrosine fluorescence intensity at 305 nm versus concentration of the ligand. K d was then calculated as described.

Row | Quenching of L-FABP tyrosine emission (in words) [5] | Kd ([5]; 10 mM phosphate buffer, read-out: K d by L-FABP tyrosine quenching (converted)) | SMILES | Unesterified fatty acid level [1] | Cytosolic glucose ([2]; 6 mM glucose in medium) | Fold increase of cytosolic glucose versus no inhibitor ([2]; 6 mM glucose in medium) | Cytosolic glucose ([2]; 20 mM glucose in medium) | Fold increase of cytosolic glucose by inhibitor [2] | Fold increase of cytosolic glucose with increasing glucose from 6 to 20 mM [2] | PPARα transcription of CPT1A, CPT2, ACOX1 (mRNA) [3] | Ability to activate PPARα transcription of CPT1A, CPT2, ACOX1 (mRNA) ([3]; 20 mM glucose) | Transactivation of PPARα [4] | Decrease of PPARα transcription of CPT1A, CPT2, or ACOX1 ([3]; 20 mM glucose, TOFA 10 μg/mL)
1 | – | – | C=C1C(=O)OC(CCCCCCCC)C1C(=O)O (centres unmarked) [C75, 4-methylene-2-octyl-5-oxotetrahydrofuran-3-carboxylic acid] | Neither TOFA nor C75 significantly impacted | 4 mM | ~ 2 fold | 13 mM | ~2 fold | ~4 fold | lack of effect | abolished | – | –
2 | efficiently quenched | 57 nM | CCCCCCCCCCCCCCOc1ccc(C(=O)O)o1 [TOFA, 5-tetradecyloxy-2-furancarboxylic acid] | Neither TOFA nor C75 significantly impacted | 4 mM | ~ 2 fold | 20 mM | ~2 fold | ~5 fold | lack of effect | abolished | transactivated | ~50%
